Data reported in the NIST ThermoML archive (doi:10.1016/j.jct.2010.08.006).
± gives the expanded uncertainty stated by the source.

Test: xn = mol fraction of the nth substance listed
Conditions: 101 kPa, Liquid, Vibrating tube method

[2H]O[2H] [water-d2] + C1CCOC1
mass density [kg/m3]
Conditions	278.15 K	288.15 K	298.15 K	308.15 K	318.15 K
x1 = 0.001848	903.83 ± 0.07	893.06 ± 0.08	882.16 ± 0.08	871.13 ± 0.09	859.96 ± 0.09
x1 = 0.003689	903.96 ± 0.07	893.18 ± 0.08	882.28 ± 0.08	871.25 ± 0.09	860.08 ± 0.09
x1 = 0.005866	904.1 ± 0.07	893.33 ± 0.08	882.43 ± 0.08	871.4 ± 0.09	860.22 ± 0.09
x1 = 0.008339	904.27 ± 0.07	893.5 ± 0.08	882.59 ± 0.08	871.56 ± 0.09	860.38 ± 0.09
x1 = 0.01068	904.43 ± 0.07	893.65 ± 0.08	882.75 ± 0.08	871.72 ± 0.09	860.54 ± 0.09
x1 = 0.01396	904.65 ± 0.07	893.88 ± 0.08	882.97 ± 0.08	871.93 ± 0.09	860.76 ± 0.09
x1 = 0.01768	904.91 ± 0.07	894.13 ± 0.08	883.23 ± 0.08	872.19 ± 0.09	861 ± 0.09
x1 = 0.0203	905.09 ± 0.07	894.31 ± 0.08	883.4 ± 0.08	872.36 ± 0.09	861.18 ± 0.09
x1 = 0.02398	905.35 ± 0.07	894.57 ± 0.08	883.66 ± 0.08	872.62 ± 0.09	861.43 ± 0.09
x1 = 0.02882	905.69 ± 0.07	894.9 ± 0.08	883.99 ± 0.08	872.95 ± 0.09	861.76 ± 0.09
x1 = 0.03403	906.06 ± 0.07	895.27 ± 0.08	884.36 ± 0.08	873.31 ± 0.09	862.11 ± 0.09
x1 = 0.03668	906.25 ± 0.07	895.46 ± 0.08	884.55 ± 0.08	873.49 ± 0.09	862.3 ± 0.09
x1 = 0.04255	906.67 ± 0.07	895.88 ± 0.08	884.96 ± 0.08	873.91 ± 0.09	862.71 ± 0.09
